What was measured:
[1] = system: ABC transporters and CYPs; assay: Gene expression (induction) studies by qRT-PCR; assay type: cell-based, human; conditions: 1.5 µM tepotinib; DI-related models, NSCLC cell lines and primary NSCLC cultures
Experimental: Gene expression studies were performed employing quantitative real-time reverse transcription PCR (qRT-PCR) technique as described in our previous papers.
The Caco-2, LS174T, A549, NCI-H1299 cells or primary lung cancer cells were seeded on 12-well plates with the densities of 50 × 10^4, 100 × 10^4, 24 × 10^4, 18 × 10^4 or 15 × 10^4 cells/well, respectively, and incubated for 24 h. […] Samples were collected at 24 h and 48 h intervals after drug treatment using TRI Reagent and then, mRNA isolation was performed. Agarose gel electrophoresis was used for the control of RNA quality and integrity and the RNA yield was monitored via NanoDrop ND-1000 spectrophotometer (American Laboratory Trading, East Lyme, CT, USA). RNA (1000 ng) was transcribed to cDNA using gb Reverse Transcription Kit. ABCB1, ABCG2 and ABCC1 mRNA expressions were detected with Master Mix and TaqMan-based qRT-PCR systems using QuantStudio 6 (Life Technologies, Carlsbad, CA, USA). […]
In the case of the HepaFH3 hepatocytes, first, viability was analyzed with CellTiter-Glo 2.0 Viability Assay; the luminescence was measured using a microplate reader (FLUOstar Omega, BMG Labtech, Ortenberg, Germany). […] RNA integrity and quality was checked by agarose gel electrophoresis and the concentration assessed by NanoDrop. […]

HL60-ABCC1 cells = assay: XTT proliferation assay (comparative viability); assay type: cell-based; conditions: single drug, 48 h
Experimental: These colorimetric assays were used in various studies presented in this paper (prior induction studies, MDR reversal experiments and comparative viability assays) and were performed as reported previously. […] In MTT experiments, cells were seeded on a 96-well culture plate at densities (in number of cells/well) of 1.3 × 10^4 for MDCKII-par, MDCKII-ABCB1 and MDCKII-ABCG2; 1.2 × 10^4 for A431-par, A431-ABCB1, A431-ABCG2 and A431-ABCC1; 1.2 × 10^4 for NCI-H1299; 1.0 × 10^4 for A459; 2.0 × 10^4 for Caco-2; 5.0 × 10^4 for LS174T; and 1.0 × 10^4 for primary NSCLC explants. On the other hand, for XTT cells were seeded with densities 2.0 × 10^4 for HL60-par, HL60-ABCB1, HL60-ABCG2 and HL60-ABCC1 cells/well on 96-well plates. […] Following 48 h incubation with drugs, Opti-MEM solutions of MTT or XTT (1 mg/mL) with phenazine methosulfate solution (7.50 μg/mL; only for XTT) was added and the cells were incubated for 1 h with the exception of HL60s that were incubated for 5 h.

ABCG2 = target: T1, ABCG2 (Homo sapiens, UniProt Q9UNQ0); assay: MDCKII cellular monolayer transport assay; assay type: in vitro ADME; conditions: 1 µM tepotinib, 4 h
T1 sequence (Q9UNQ0 1-655): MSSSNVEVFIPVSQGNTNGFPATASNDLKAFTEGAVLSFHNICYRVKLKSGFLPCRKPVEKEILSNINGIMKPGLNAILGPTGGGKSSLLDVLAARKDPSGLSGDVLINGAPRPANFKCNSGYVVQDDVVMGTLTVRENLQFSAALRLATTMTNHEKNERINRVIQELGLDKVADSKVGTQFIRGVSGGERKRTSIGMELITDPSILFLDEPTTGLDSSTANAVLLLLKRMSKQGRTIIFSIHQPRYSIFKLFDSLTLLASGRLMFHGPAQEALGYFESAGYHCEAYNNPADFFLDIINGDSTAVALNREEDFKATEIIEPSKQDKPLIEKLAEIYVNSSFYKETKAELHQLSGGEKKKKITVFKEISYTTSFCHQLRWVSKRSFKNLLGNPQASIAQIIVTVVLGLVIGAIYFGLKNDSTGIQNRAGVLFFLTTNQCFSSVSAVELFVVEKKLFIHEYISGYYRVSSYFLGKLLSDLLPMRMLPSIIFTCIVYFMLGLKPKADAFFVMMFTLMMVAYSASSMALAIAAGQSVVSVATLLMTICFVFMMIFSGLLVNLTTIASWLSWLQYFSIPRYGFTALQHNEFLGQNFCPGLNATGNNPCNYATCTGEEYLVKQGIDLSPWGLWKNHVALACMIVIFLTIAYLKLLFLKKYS
Experimental: (§1) This assay was performed as described previously. […] The Transwells were incubated until full confluence for 7 days with media replacement every 2 days. Prior addition of tested drugs, inserts were washed with 1 × PBS on both apical and basal sides. […] Samples were then collected from the acceptor chambers at 0.5, 1, 2 and 4 h intervals. Cellular monolayers’ integrity was verified using fluorescein isothiocyanate-labeled dextran (MW = 40 kDa) accepting leakage up to 5% per hour.

ABCB1 = ABCB1 (Homo sapiens, UniProt P08183); assay: MDCKII cellular monolayer transport assay; assay type: in vitro ADME; conditions: 1 µM tepotinib, 4 h, asymmetry aborted by 1 µM LY335979
ABCB1, sequence (P08183 whole entry): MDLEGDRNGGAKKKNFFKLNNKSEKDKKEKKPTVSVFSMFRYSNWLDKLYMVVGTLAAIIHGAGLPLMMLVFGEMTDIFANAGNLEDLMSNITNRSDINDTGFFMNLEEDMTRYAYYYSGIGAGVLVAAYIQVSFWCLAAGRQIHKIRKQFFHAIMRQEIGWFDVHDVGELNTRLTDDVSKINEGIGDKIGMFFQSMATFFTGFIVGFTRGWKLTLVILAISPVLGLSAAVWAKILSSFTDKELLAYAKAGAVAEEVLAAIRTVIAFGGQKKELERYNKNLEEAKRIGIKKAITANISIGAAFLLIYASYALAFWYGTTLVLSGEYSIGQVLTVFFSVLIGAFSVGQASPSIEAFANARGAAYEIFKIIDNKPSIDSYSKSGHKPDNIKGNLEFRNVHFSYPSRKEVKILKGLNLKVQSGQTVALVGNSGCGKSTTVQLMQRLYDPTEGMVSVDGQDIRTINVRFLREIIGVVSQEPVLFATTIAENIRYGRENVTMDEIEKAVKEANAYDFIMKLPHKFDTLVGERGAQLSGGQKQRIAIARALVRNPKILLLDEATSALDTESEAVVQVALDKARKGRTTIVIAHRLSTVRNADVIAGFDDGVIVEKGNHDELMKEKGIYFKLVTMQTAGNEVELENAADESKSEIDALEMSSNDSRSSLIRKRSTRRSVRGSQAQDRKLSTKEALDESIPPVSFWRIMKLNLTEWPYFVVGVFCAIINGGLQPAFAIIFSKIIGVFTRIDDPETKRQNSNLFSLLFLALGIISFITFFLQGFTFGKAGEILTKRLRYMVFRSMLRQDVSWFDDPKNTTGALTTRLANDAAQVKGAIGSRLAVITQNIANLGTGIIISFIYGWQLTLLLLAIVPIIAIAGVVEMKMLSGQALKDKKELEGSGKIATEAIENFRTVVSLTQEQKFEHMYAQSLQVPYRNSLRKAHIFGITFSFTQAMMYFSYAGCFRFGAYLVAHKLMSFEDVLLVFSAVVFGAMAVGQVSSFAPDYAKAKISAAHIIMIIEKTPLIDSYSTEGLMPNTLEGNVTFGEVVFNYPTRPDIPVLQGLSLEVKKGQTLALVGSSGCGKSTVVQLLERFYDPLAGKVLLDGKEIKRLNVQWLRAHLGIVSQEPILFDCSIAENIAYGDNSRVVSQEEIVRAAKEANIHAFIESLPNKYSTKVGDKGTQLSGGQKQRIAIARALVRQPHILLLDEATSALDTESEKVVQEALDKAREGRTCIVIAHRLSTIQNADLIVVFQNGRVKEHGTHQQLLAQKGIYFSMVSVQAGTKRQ
Experimental: as §1

ABCC1 = ABCC1 (Homo sapiens, UniProt P33527); assay: MDCKII cellular monolayer transport assay; assay type: in vitro ADME; conditions: 1 µM tepotinib, 4 h
ABCC1, sequence (P33527 whole entry): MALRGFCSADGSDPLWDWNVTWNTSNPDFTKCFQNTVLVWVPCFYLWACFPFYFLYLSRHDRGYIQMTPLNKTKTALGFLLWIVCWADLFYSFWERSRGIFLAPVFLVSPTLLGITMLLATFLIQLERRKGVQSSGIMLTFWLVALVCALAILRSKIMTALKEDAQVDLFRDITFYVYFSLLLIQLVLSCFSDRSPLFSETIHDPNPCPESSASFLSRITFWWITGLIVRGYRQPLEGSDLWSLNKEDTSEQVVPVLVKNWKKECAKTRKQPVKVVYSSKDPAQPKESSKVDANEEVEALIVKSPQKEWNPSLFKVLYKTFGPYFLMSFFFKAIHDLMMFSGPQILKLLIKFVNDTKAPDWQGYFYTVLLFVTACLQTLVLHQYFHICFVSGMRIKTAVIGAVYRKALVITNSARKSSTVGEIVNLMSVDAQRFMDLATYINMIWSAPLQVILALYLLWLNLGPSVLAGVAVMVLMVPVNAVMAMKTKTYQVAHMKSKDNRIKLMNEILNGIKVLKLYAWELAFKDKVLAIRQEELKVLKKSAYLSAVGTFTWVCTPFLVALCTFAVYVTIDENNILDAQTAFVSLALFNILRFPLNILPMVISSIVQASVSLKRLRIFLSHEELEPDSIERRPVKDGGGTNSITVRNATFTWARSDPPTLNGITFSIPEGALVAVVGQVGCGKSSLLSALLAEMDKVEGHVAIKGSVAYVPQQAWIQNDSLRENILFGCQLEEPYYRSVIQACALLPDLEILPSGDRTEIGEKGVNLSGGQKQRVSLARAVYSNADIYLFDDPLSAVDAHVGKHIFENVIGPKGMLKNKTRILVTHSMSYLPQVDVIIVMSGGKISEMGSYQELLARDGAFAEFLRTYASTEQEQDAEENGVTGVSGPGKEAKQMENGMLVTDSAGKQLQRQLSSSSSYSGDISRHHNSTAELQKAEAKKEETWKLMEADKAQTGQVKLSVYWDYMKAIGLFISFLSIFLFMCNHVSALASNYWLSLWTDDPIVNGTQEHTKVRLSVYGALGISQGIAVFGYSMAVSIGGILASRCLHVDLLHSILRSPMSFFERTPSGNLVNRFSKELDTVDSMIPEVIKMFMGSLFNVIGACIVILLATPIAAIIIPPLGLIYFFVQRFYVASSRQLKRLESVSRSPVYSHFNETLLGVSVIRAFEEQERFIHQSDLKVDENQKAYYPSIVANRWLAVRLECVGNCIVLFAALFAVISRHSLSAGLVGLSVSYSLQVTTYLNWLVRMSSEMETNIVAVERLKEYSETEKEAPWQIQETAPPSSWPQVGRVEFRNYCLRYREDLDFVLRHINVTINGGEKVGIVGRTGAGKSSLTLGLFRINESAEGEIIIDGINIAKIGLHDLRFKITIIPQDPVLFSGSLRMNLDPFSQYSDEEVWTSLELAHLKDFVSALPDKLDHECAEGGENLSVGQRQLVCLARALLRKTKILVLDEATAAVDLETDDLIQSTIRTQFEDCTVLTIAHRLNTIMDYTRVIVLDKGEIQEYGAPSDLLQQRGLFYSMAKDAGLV
Experimental: as §1

CYP2C8 = target: T2, CYP2C8 (Homo sapiens, UniProt P10632); assay: Vivid CYP450 Screening Kit, recombinant CYP2C8; assay type: in vitro ADME; conditions: recombinant enzyme; read-out: CYP2C8 inhibition IC50
T2 construct: purchased Thermo Fisher Scientific
T2 sequence (P10632 whole entry): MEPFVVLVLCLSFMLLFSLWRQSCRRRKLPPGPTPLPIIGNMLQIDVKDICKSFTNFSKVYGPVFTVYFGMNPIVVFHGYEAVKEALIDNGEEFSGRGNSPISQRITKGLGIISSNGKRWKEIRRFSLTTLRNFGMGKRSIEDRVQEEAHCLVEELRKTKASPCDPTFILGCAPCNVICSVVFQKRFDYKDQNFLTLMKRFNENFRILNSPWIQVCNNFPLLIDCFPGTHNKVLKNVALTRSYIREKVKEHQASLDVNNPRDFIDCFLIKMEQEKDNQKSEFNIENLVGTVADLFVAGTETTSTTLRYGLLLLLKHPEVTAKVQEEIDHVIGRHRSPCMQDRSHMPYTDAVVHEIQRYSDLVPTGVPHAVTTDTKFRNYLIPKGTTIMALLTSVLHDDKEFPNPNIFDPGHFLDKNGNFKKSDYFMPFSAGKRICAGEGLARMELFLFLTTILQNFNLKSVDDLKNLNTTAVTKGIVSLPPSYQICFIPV
Experimental: CYP inhibitory assay was performed using Vivid CYP450 screening kit as described previously. The kits consist of microsomal fraction containing human CYP isoforms, human CYP reductase and in several cases cytochrome b5. Experiments were performed following the manufacturer’s protocol on black 96-well plates using kinetic mode. […] Then, the master mix (CYP isoenzyme with an NADPH regeneration system in buffer) was added in each well and plate was pre-incubated for 10 min. The reaction was started with the mixture of NADP^+ and Vivid substrate and the fluorescence of samples was measured in 1 min interval for 60 min using an Infinite M200 Pro microplate reader (Tecan, Männedorf, Switzerland). Data from linear phase (15 min) were used for data evaluation.

## CN1CCC(COc2cnc(-c3cccc(Cn4nc(-c5cccc(C#N)c5)ccc4=O)c3)nc2)CC1 [tepotinib, Tepotinib]
[1]
  Effect on expression of clinically relevant ABC transporters and CYPs: did not influence expression
HL60-ABCC1 cells
  IC50: 20 µM
ABCG2
  Substrate affinity for ABCG2: No substrate affinities
ABCB1
  Substrate affinity for ABCB1 (transport asymmetry): ABCB1 substrate
ABCC1
  Substrate affinity for ABCC1: No substrate affinities
CYP2C8
  IC50: 20.4 µM

— publication PMC8584989 (International Journal of Molecular Sciences, 2021)
